For assay [1], the system named is stage 1 neural stem cells. The experiment in a line: HD-DoE 12-factor experiment for stage 2 recipe (second model, FIG. 8-10, 13). The assay is classed as cell-based, human. The note with it: for impact on expression of FOXA2 / impact on expression of LMX1A / impact on GBX2: dynamic profile, 12 effectors; for level of FOXA2 in absence of the factor / level of LMX1A in absence of the factor: stage 2 recipe, second experiment model; for level of LMX1A in absence of the factor: 4000 with all factors. How it is done: To test additional factors like FGF8 that is routinely used in midbrain differentiation protocols, we ran another 12-factor experiment consisting of LDN193189, BMP7, A 83-01, Activin A, Takinib, PD0325901, MK2206, FGF8b, AZD3147, MHY1485, GSI-XX and Yhhu 3792. Similar to the previous experiment, hiPSCs were treated with stage 1 media for 3 days and then treated with 96 conditions of combinations of the factors for an additional 3 days. When this model was optimized for maximum expression of FOXA2, BMP7 with factor contribution of 13.7 and MK2206 with 14.2 had the most impact on its expression followed by AZD 3147 with factor contribution of 10.9.
(§1) To assess the impact of elimination of each validated factor, we used dynamic profile analysis and compared the expression level of genes of interest in absence of each finalized factor while others are present.
(§2) In the stage 2 recipe, each of the six finalized factors were removed while the other five factors were present and the expression levels of FOXA2, LMX1A and GBX2 were assessed, compared to the levels in the presence of all factors. According to the first experiment model, the absence of TTNPB lead to a rise of GBX2 expression, while the value of FOXA2 and LMX1A reduced drastically from 10,000 to 0 and 30,000 to 15,000, respectively. The absence of A 83-01 reduced the expression of FOXA2 from 10,000 to 7000, however, as expected, the value of LMX1A increased from 30,000 to 40,000. […] According to the second experiment model, the absence of BMP7 and MK2206 both reduced the level of FOXA2 while increasing the value of LMX1A, with BMP7 as the main effector that led to 0 expression of FOXA2.

Assay [2] relates to stage 1 neural stem cells. The experiment in a line: HD-DoE 12-factor experiment for stage 2 recipe (first model, FIG. 5-7, 12). The format is cell-based, human. The note with it: for factor contribution: positive impact.
Source text: To further guide the differentiation of midbrain-committed neural stem cells to neural progenitor cells at stage 2, we performed an additional HD-DoE experiment. We thereby obtained additional gene regulatory models that were used for preparation of differentiation protocol. The basis of this was a 12-factor HD-DoE experiment with focus on initiation of differentiation of cells toward midbrain neural progenitor cells for an additional 3 days after termination of stage 1 treatment. Here, we focused on expression of LMX1A and FOXA2 in neural progenitor cells with low to zero expression of GBX2. LMX1A had significant high expression level in the model with value of 47888. Therefore, we used optimization setting for this gene to identify the positive factors. The factors in this experiment included SC79, MK2206, ZM336372, PD0325901, CHIR99021, A 83-01, TTNPB, AGN193109, GW3965, SR9243, Purmorphamine and GSI-XX.
as §1, §2

The subject of assay [3] is human pluripotent stem cells. The experiment in a line: HD-DoE 13-factor experiment for stage 1 recipe, gene expression modeled after 3-day treatment; dynamic profile and factor criticality analysis. The assay is classed as cell-based.
Source text: This example utilizes a method of High-Dimensional Design of Experiments (HD-DoE), as previously described in Bukys et al. (2020) Iscience 23:101346. The method employs computerized design geometries to simultaneously test multiple process inputs and offers mathematical modeling of a deep effector/response space. The method allows for finding combinatorial signaling inputs that control a complex process, such as during cell differentiation. It allows testing of multiple plausible critical process parameters, as such parameters impact output responses, such as gene expression. Because gene expression provides hallmark features of the phenotype of, for example, a human cell, the method can be applied to identify, and understand, which signaling pathways control cell fate. In the current example, the HD-DOE method was applied with the intent to find conditions for induction of midbrain neural progenitor-expressed genes, directly from the pluripotent stem cell state.
To develop the recipe for each stage, the impact of agonists and antagonists of multiple signaling pathways (referred to herein as “effectors”) on the expression of two sets of 53 pre-selected genes after a 3-day treatment was tested and modeled. These effectors are small molecules or proteins that are commonly used during stepwise differentiation of stem cells to specific fates. The choice of the effectors to test was based on current literature on neural induction in the midbrain region of the developing brain and differentiation of stem cells to neural progenitors.
To test the effectors, experiments with at least 8 factors were designed that can assess the response of cells to 48 or more different combinations of effectors in a range of concentrations. To analyze the models, we focused on expression of genes expressed in the midbrain region, including OTX2, DMBX1, FOXA2, LMX1A, and on the absence of GBX2, which is a hindbrain marker. The impact of each effector on gene expression level is defined by a parameter called factor contribution that is calculated for each effector during the modeling.
To identify the recipe of stage 1 of differentiation, cells were treated with various effectors for 3 days and the gene expression of cells was modeled. […] This model consisted of 13 factors including LDN193189, PD173074, BLU9931, Purmorphamine, SC79, MK2206, ZM336372, PD0325901, CHIR99021, XAV939, UCLA-gp130, Tofacitinib and GO 6983.
as §1
In the stage 1 recipe, each of the five finalized factors were removed while the other four factors were present and the expression levels of OTX2, DMBX1, FOXA2 and LMX1A was assessed compared to the levels in the presence of all five factors (FIG. 11A-B). […] Expression level of DMBX1 increased in absence of LDN193189, however values of OTX2, FOXA2 and LMX1A decreased.

Assay [4] concerns stage 2 neural progenitors. The experiment in a line: HD-DoE 12-factor model for stage 3 recipe (FIG. 19-23, 29). The assay is classed as cell-based, human. An excerpt: To develop the neuronal differentiation recipes, the impact of various agonist and antagonists (effectors) on maturation of MB neural progenitors was investigated using the HD-DoE method described in Example 1. These effectors were chosen based on available literature on developmental biology, differentiation of stem cells as well as mouse and human single cell RNA-seq data from midbrain neurons at the time.
To engineer the recipe of stage 3 of differentiation, cells were first cultured in the stage 1 and stage 2 media as described herein, then they were treated with combinations of 8 or 12 factors for 3 days and the gene expression of cells in each condition was modeled. To guide the cells towards a subtype of midbrain dopaminergic neurons that reside in Substantia Nigra pars compacta (SNc) region of the brain, neural progenitors need to be SOX6^+ (Pereira et al. (2021) Cell Rep. 37:109975 Oosterveen et al. (2021) Stem Cell Reports 16:2718-2735 Poulin et al. (2020) Trends Neurosci. 43:155-169). CORIN, NGN2 and MSX1 are other markers involved in neurogenesis of dopaminergic neurons originating from floorplate region of developing midbrain (Wang et al. (2020) Cells 9:1489; Samata et al. (2016) Nat Commun. 7:13097; Ono et al. (2007) Development 134:3213-3225; Prakash et al. (2006) J. Physiol. 575:403410).
Therefore, we focused on maximizing expression of SOX6, CORIN, NGN2 and MSX1 in modeling experiments. One of the 12-factor models, the results of which are shown in FIG. 19, including LDN193189, AGN193109, BMP7, TTNPB, PD0325901, A8301, MHY1485, CHIR99021, XAV939, SANT-1, Purmorphamine and MK2206, provided a combination set that could maximize expression level of CORIN to more than 2000.
To assess the impact of elimination of each validated factor identified in Example 5 for the stage 3 and stage 4 recipes, we used dynamic profile analysis and compared the expression level of genes of interest in absence of each finalized factor while others are present.
In the stage 3 recipe, each of the finalized factors were removed in their respective models while other factors were present and the expression level of genes of interest was assessed compared to presence of all factors. When AGN193109 was excluded, level of all CORIN, KCNJ6, MSX1 and SOX6 decreased from 900 to 450, 50 to 35, 140 to 110 and 105 to 60, respectively. […] When PD0325901 was removed, expression levels of CORIN and KCNJ6 increased to 1200 and 70 while levels of MSX1 and SOX6 decreased to 105 and 20. In the absence of CHIR99021, the expression level of CORIN was again increased to 1200 while the level of KCNJ6 and MSX1 dropped to 50 and 115. […] Therefore, it was decided to include this compound in the final recipe. […] Therefore, CHIR99021 was also included in the final recipe.

The mark [5] stands for this setting: dynamic profile / model, 12 effectors.
Setting [6] is: model optimized for maximum expression of FOXA2, positive impact.

Several values for one entry are separate records, joined by “and”; a condition that tells them apart may be missing. Equal entries are not always repeated. Entries after “also recorded” stand apart in the source; their conditions may differ.

Regarding `C[C@H](NC(=O)Cc1cc(F)cc(F)c1)C(=O)N[C@@H]1C(=O)N(C)c2ccccc2-c2ccccc21` [GSI-XX], in assay [1], the “impact on expression of FOXA2” value is on record as “did not make a meaningful positive change” and the “impact on expression of LMX1A” value was “did not make a meaningful positive change”.

On to `NC1(c2ccc(-c3nc4ccn5c(=O)[nH]nc5c4cc3-c3ccccc3)cc2)CCC1` [MK2206], for which the “impact on expression of FOXA2” value in assay [2] (setting [5]) is listed as “positive impact”. Moreover, in assay [1], the “impact on GBX2” value is on record as “desirable impact”, the “impact on expression of FOXA2” value is “desirable impact; also recorded: positive impact”, the “impact on expression of LMX1A” value is reported as “decreases” and the “level of FOXA2 in absence of the factor” value was “reduced”. Also, the “level of LMX1A in absence of the factor” value in assay [1] is given as “increasing”. Besides, the factor contribution in assay [1] (setting [6]) is 14.2. In addition, in assay [1] (model optimized for maximum expression of LMX1A, positive impact), the factor contribution is given as 12. Further, the “impact on expression of OTX2” value in assay [3] (dynamic profile, 13 effectors) is reported as “positive impact”. Further, the factor contribution in assay [3] (model optimized for maximum expression of OTX2, positive impact, 3-day treatment) turned out to be 22.3. Further, the “expression level of LMX1A in absence of the factor” value in assay [3] (stage 1 recipe, other four factors present, 300 with all five factors) was “stayed the same”. In assay [3] (stage 1 recipe, other four factors present, 600 with all five factors), the “expression level of FOXA2 in absence of the factor” value is “stayed the same”. In assay [3] (stage 1 recipe, other four factors present, 3000 with all five factors), the “expression level of DMBX1 in absence of the factor” value is 1500. Further, the “expression level of OTX2 in absence of the factor” value in assay [3] (stage 1 recipe, other four factors present, 12000 with all five factors) is 9500.

For the molecule `C/C(=C\c1ccc(C(=O)O)cc1)c1ccc2c(c1)C(C)(C)CCC2(C)C` [TTNPB], the “impact on expression of LMX1A” value in assay [2] (setting [5]) is “positive impact”. Further, the factor contribution in assay [2] (model optimized for LMX1A) worked out at 19.5; in assay [2] (model optimized for maximum expression of FOXA2), 10.7; in assay [4] (model optimized for MSX1, negative regulatory effect), 15.5; in assay [4] (model optimized for SOX6, negative impact), 9.5. The “GBX2 expression in absence of the factor” value in assay [2] (stage 2 recipe, first experiment model) was “rise”. Besides, in assay [2] (stage 2 recipe, first experiment model, 10,000 with all factors), the “value of FOXA2 in absence of the factor” value stood at 0. The “value of LMX1A in absence of the factor” value in assay [2] (stage 2 recipe, first experiment model, 30,000 with all factors) is on record as 15,000.

As for `COc1cccc(Oc2cccc3nc(Nc4ccc(C(C)C)cc4)nc(N)c23)c1` [Yhhu 3792], in assay [1], the “impact on GBX2” value is reported as “positive effect” and the “impact on expression of LMX1A” value is recorded as “considerable negative effect”. In addition, the factor contribution in assay [1] (model optimized for LMX1A, negative impact) turned out to be 11.7.

B1: BMP7: BMP agonist (protein, UniProt P18075 293-431, looked up)
Bone morphogenetic protein 7: STGSKQRSQNRSKTPKNQEALRMANVAENSSSDQRQACKKHELYVSFRDLGWQDWIIAPEGYAAYYCEGECAFPLNSYMNATNHAIVQTLVHFINPETVPKPCCAPTQLNAISVLYFDDSSNVILKKYRNMVVRACGCH
Turning to B1, the factor contribution entry in assay [4] (model maximizing expression of CORIN, positive regulatory impact) is reported as “high positive factor contributions”. In assay [4] (model optimized for maximum expression of KCNJ6, positive regulators), the factor contribution entry is reported as “low factor contributions”. For the same molecule, the factor contribution in assay [4] (model optimized for maximum expression of MSX1, positive impact) is 11.1 and 11.06. Moreover, the “expression level of KCNJ6 in absence of the factor” value in assay [4] (stage 3 recipe, other factors present, 50 with all factors) was “did not have a significant change”. For the same molecule, the “expression level of SOX6 in absence of the factor” value in assay [4] (stage 3 recipe, other factors present, 105 with all factors) is given as “did not have a significant change”. Moreover, the “expression level of MSX1 in absence of the factor” value in assay [4] (stage 3 recipe, other factors present, 140 with all factors) was 100. Moreover, in assay [4] (stage 3 recipe, other factors present, 900 with all factors), the “expression level of CORIN in absence of the factor” value came to 500. Besides, in assay [1], the “impact on expression of FOXA2” value is “significant positive impact”, the “impact on expression of LMX1A” value was “did not reduce”, the “level of FOXA2 in absence of the factor” value was found to be 0 and the “level of LMX1A in absence of the factor” value is recorded as “increasing”. Further, the factor contribution in assay [1] (setting [6]) is 13.7.
